Data as given in patent US20250011738A1, “HEAT TOLERANT ALKALINE PHOSPHATASE” (BiomEdit, LLC, priority 2021, published 2025).

Target: T1, Paenibacillus lentus alkaline phosphatase AP1 (designated "Native"), serine (S) replacement for an aspartic acid (D), SEQ ID NO: 4 (Paenibacillus lentus, UniProt A0A3Q8S6G4, D102S)
T1 sequence (A0A3Q8S6G4 34-572 D102S): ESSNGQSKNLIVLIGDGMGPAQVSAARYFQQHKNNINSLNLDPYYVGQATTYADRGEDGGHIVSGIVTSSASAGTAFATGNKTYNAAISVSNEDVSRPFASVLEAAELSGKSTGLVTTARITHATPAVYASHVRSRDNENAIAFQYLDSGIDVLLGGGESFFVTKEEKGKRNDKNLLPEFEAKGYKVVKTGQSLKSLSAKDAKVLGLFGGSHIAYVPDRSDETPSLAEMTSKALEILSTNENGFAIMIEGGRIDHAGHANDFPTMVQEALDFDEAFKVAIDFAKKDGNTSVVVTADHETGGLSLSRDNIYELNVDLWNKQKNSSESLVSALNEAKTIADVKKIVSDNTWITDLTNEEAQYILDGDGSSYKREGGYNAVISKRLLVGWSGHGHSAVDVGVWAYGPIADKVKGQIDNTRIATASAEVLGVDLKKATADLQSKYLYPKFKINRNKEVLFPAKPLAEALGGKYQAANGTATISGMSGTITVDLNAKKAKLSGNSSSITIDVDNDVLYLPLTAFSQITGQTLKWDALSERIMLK
Assay: Phosphatase kinetics with p-NPP, AP1 ("Native")
Type: biochemical
Description: FIG. 7 presents effect of pH on (A)Vmax (IU/mg) and (B) KM (μM) activity of AP1 (designated “Native”) and APHT (designated “HT”). Assays were performed at 40° C. with p-NPP as substrate in the concentration range 0-5 mM. The enzyme concentration was 2.5 μg/mL for the pH 8 and 0.4 mg/mL for pH 9-13).
FIG. 8 presents effect of pH on (A)Vmax (IU/mg) and (B) KM (μM) activity of AP1 (designated “Native”) and APHT (designated “HT”). Assays were performed at 50° C. with p-NPP as substrate in the concentration range 0-5 mM. The enzyme concentration was 2.5 μg/mL for the pH 8 and 0.4 mg/mL for pH 9-13).
Enzymes, including lysozyme and alkaline phosphatase, are recognized as disruptors of bacterial debris and inflammation. These enzymes reduce inflammation, including by lysing the peptidoglycans and LPS of bacteria, thus deactivating them and thereby bypassing the inflammatory response. An alkaline phosphatase was initially identified and modified from Paenibacillus lentus bacteria and expressed for application and use as a farm animal feed additive. This modified alkaline phosphatase is characterized by having a serine (S) replacement for an aspartic acid (D) in the native bacterial alkaline phosphatase protein sequence and is designated herein as AP1. […] The AP1 alkaline phosphate is described including in U.S. Pat. No. 9,326,535 issued May 3, 2016. The sequence of AP1 is as follows (the serine is in bold and underlined) (SEQ ID NO:4):
• 1 M DEA Buffer pH 10. Dissolve 10.5 g of diethanolamine in to 100 ml of water. The pH adjust with 1 M hydrochloric acid or 1 M NaOH. Filter sterilize and store at 4 C. • 0.5 M Tris Base Buffer pH 10 and 8. Dissolve 6.06 g of Tris in to 100 ml of water. The pH adjust with 1 M hydrochloric acid or 1 M NaOH. Filter sterilize and store at 4 C. • 0.1 M Borate Buffer pH 11 and 12. Dissolve 0.62 g Boric acid, 0.44 g NaCl and Sodium tetraborate 0.95 g in 100 ml H2O. The pH adjust with 1 M hydrochloric acid or 1 M NaOH. Filter sterilize and store at 4 C. • 1 M KCl/NaOH Buffer pH 13. Dissolve 7.4 g KCl in 100 ml water. The pH adjust with 1 M NaOH. Filter sterilize and store at 4 C. • 1 M MgCl2, 23.8 g MgCl2 anhydrous in […] water. Filter sterilize and store at 4 C 3. Activity Assay: p-NPP Substrate
Reactions were carried out at 40° C. using 50 mM Tris buffer pH 7 with 50 mM MgCl2 and at 50° C. using 50 mM DEA buffer pH 10 with 50 mM MgCl2. Enzyme was thawed, aliquoted in 500 μL vials and freeze at −80° C. For 100 μL volume of reaction, components were mixed in 96-well microplate (Fisher 12565501) following the order in TABLE 1. Every reaction condition was done by triplicated at least.
After the adding enzyme, the absorption of product was followed at 405 nm over 5 min in a M5 plate reader with intervals of 20 s. Initial rate was determined for each curve and product formed calculated using the extinction coefficient of 18.5 mM^−1·cm^−1 and a calculated pathlength of 0.5 cm. Initial rates where fitted to Michalis Menten model built in the Kaleidagraph software.
pH effect on enzyme activity was tested at 40 and 50° C. in the corresponding buffer with 50 mM MgCl2 using p-NPP as substrate in the concentration range 0-5.0 mM. The reaction started with the addition of enzyme (2.5 μg/mL for pH 8 and 0.4 μg/mL for pH 9-13) and the absorption at 405 nm was followed for 5 min. Every reaction condition was done by triplicated at least. The initial rates where fitted to Michalis Menten model built in the software Kaleidagraph.

## O=[N+]([O-])c1ccc(OP(=O)(O)O)cc1 [p-NPP, p-nitrophenylphosphate]
40° C., Borate pH 11
  Km: 3340 µM
40° C., DEA pH 10
  Km: 776 µM
40° C., Tris pH 8
  Km: 65 µM
40° C., Tris pH 9
  Km: 315 µM
50° C., Borate pH 11
  Km: 573 µM
50° C., Borate pH 12
  Km: 293 µM
50° C., KCl/NaOH (pH printed 204; Table 2: 13.0)
  Km: 64 µM
50° C., Tris pH 8
  Km: 383 µM
50° C., Tris pH 9
  Km: 1440 µM
